Tested on: MV-4-11 cells
Test: Gene expression microarray analysis (Affymetrix PrimeView) and GSEA
Type: cell-based, human
Design: RFU PODN (11730768_x_at) / Fold change /veh PODN (11730768_x_at) / RFU LINC00158 (11744669_a_at) / Fold change /veh LINC00158 (11744669_a_at) / RFU DUSP10 (11751237_a_at) / Fold change /veh DUSP10 (11751237_a_at) / RFU ID3 (11757404_x_at) / Fold change /veh ID3 (11757404_x_at) / RFU PLEKHG5 (11737974_s_at) / Fold change /veh PLEKHG5 (11737974_s_at) / RFU LRRC4B (11730491_at) / Fold change /veh LRRC4B (11730491_at) / RFU GIMAP4 (11747438_a_at) / Fold change /veh GIMAP4 (11747438_a_at) / RFU KRT8 (11758183_x_at) / Fold change /veh KRT8 (11758183_x_at) / RFU CNN1 (11734310_a_at) / Fold change /veh CNN1 (11734310_a_at) / RFU VPS37D (11726825_at) / Fold change /veh VPS37D (11726825_at) / RFU C10orf10 (11716522_x_at) / Fold change /veh C10orf10 (11716522_x_at) / RFU KIR2DL2 /// KIR2DL4 /// KIR2DL5A /// KIR2DL5B /// KIR2DS1 /// KIR2DS2 /// KIR2DS3 /// KIR2DS4 /// KIR3DL3 /// KIR3DL3 /// KIR3DS1 (11738374_at) / Fold change /veh KIR2DL2 /// KIR2DL4 /// KIR2DL5A /// KIR2DL5B /// KIR2DS1 /// KIR2DS2 /// KIR2DS3 /// KIR2DS4 /// KIR3DL3 /// KIR3DL3 /// KIR3DS1 (11738374_at) / RFU C1QL1 (11718748_at) / Fold change /veh C1QL1 (11718748_at) / RFU TMPRSS4 (11747572_a_at) / Fold change /veh TMPRSS4 (11747572_a_at) / RFU HAMP (11756126_x_at) / Fold change /veh HAMP (11756126_x_at) / RFU RNFT2 (11725882_a_at) / Fold change /veh RNFT2 (11725882_a_at) / RFU NR4A2 (11747474_a_at) / Fold change /veh NR4A2 (11747474_a_at) / RFU ABCC12 (11746883_a_at) / Fold change /veh ABCC12 (11746883_a_at) / RFU TMEM136 (11760407_x_at) / Fold change /veh TMEM136 (11760407_x_at) / RFU CLDN22 /// WWC2 (11732394_at) / Fold change /veh CLDN22 /// WWC2 (11732394_at) / RFU HLA-DPB1 (11760878_x_at) / Fold change /veh HLA-DPB1 (11760878_x_at) / RFU SPINT1 (11716480_a_at) / Fold change /veh SPINT1 (11716480_a_at) / RFU GAP43 (11754022_s_at) / Fold change /veh GAP43 (11754022_s_at) / RFU A4GNT (11735810_at) / Fold change /veh A4GNT (11735810_at) / RFU PRB3 (11715151_x_at) / Fold change /veh PRB3 (11715151_x_at) / RFU TUBB4B (11761932_at) / Fold change /veh TUBB4B (11761932_at) / RFU CAPN14 (11732068_a_at) / Fold change /veh CAPN14 (11732068_a_at) / RFU TMCC2 (11721928_a_at) / Fold change /veh TMCC2 (11721928_a_at) / RFU IRGQ (11745062_a_at) / Fold change /veh IRGQ (11745062_a_at) / RFU FAM174B (11720279_a_at) / Fold change /veh FAM174B (11720279_a_at) / RFU TMPRSS4 (11748680_a_at) / Fold change /veh TMPRSS4 (11748680_a_at) / RFU FAM212B (11763350_a_at) / Fold change /veh FAM212B (11763350_a_at) / RFU PLEKHG5 (11743358_a_at) / Fold change /veh PLEKHG5 (11743358_a_at) / RFU ZSCAN30 (11745921_a_at) / Fold change /veh ZSCAN30 (11745921_a_at) / RFU CMKLR1 (11741424_a_at) / Fold change /veh CMKLR1 (11741424_a_at) / RFU LOC101060620 /// MAPK8IP1 (11723275_at) / Fold change /veh LOC101060620 /// MAPK8IP1 (11723275_at) / RFU SPTSSB (11747773_x_at) / Fold change /veh SPTSSB (11747773_x_at) / RFU PRSS12 (11739890_at) / Fold change /veh PRSS12 (11739890_at) / RFU BIN1 (11741810_x_at) / Fold change /veh BIN1 (11741810_x_at) / RFU WNT11 (11732464_a_at) / Fold change /veh WNT11 (11732464_a_at) / RFU C10orf10 (11716521_a_at) / Fold change /veh C10orf10 (11716521_a_at) / RFU C5orf56 (11738089_at) / Fold change /veh C5orf56 (11738089_at) / RFU CYB561 (11721691_x_at) / Fold change /veh CYB561 (11721691_x_at) / RFU ANKRD19P (11752326_a_at) / Fold change /veh ANKRD19P (11752326_a_at) / RFU OR2T12 /// OR2T33 /// OR2T8 (11738714_s_at) / Fold change /veh OR2T12 /// OR2T33 /// OR2T8 (11738714_s_at) / RFU VCAN (11748164_a_at) / Fold change /veh VCAN (11748164_a_at) / RFU JSRP1 (11732532_at) / Fold change /veh JSRP1 (11732532_at) / RFU KRTAP10-11 (11738290_x_at) / Fold change /veh KRTAP10-11 (11738290_x_at) / RFU MYO3A (11730013_a_at) / Fold change /veh MYO3A (11730013_a_at) / RFU EBF3 (11725865_a_at) / Fold change /veh EBF3 (11725865_a_at) / RFU CAMK2N1 (11719241_x_at) / Fold change /veh CAMK2N1 (11719241_x_at) / RFU C5orf56 (11738088_a_at) / Fold change /veh C5orf56 (11738088_a_at) / RFU OLFML3 (11715873_a_at) / Fold change /veh OLFML3 (11715873_a_at) / RFU LOC100653217 /// NTM (11731650_a_at) / Fold change /veh LOC100653217 /// NTM (11731650_a_at) / RFU MAPK11 (11762145_a_at) / Fold change /veh MAPK11 (11762145_a_at) / RFU FIZ1 (11724087_x_at) / Fold change /veh FIZ1 (11724087_x_at) / RFU OASL (11726364_x_at) / Fold change /veh OASL (11726364_x_at) / RFU SOX15 (11748057_x_at) / Fold change /veh SOX15 (11748057_x_at) / RFU CD79A (11719716_a_at) / Fold change /veh CD79A (11719716_a_at) / RFU HIST1H1D (11736915_at) / Fold change /veh HIST1H1D (11736915_at) / RFU CASKIN2 (11723855_a_at) / Fold change /veh CASKIN2 (11723855_a_at) / RFU LOC730098 (11760151_x_at) / Fold change /veh LOC730098 (11760151_x_at) / RFU OR4N2 (11742367_at) / Fold change /veh OR4N2 (11742367_at) / RFU PRRT2 (11749266_a_at) / Fold change /veh PRRT2 (11749266_a_at) / RFU SNX32 (11753110_a_at) / Fold change /veh SNX32 (11753110_a_at) / RFU CDHR5 (11726645_a_at) / Fold change /veh CDHR5 (11726645_a_at) / RFU RCAN1 (11760418_a_at) / Fold change /veh RCAN1 (11760418_a_at) / RFU FAM167A (11723789_a_at) / Fold change /veh FAM167A (11723789_a_at) / RFU FAM26E (11764081_at) / Fold change /veh FAM26E (11764081_at) / RFU ISYNA1 (11749810_s_at) / Fold change /veh ISYNA1 (11749810_s_at) / RFU ACY1 (11761880_at) / Fold change /veh ACY1 (11761880_at) / RFU 11764098_at / Fold change /veh 11764098_at / RFU SAMD14 (11745864_x_at) / Fold change /veh SAMD14 (11745864_x_at) / RFU NPB (11741838_a_at) / Fold change /veh NPB (11741838_a_at) / RFU TMPRSS6 (11731388_a_at) / Fold change /veh TMPRSS6 (11731388_a_at) / RFU KRTAP10-2 (11738614_at) / Fold change /veh KRTAP10-2 (11738614_at) / RFU ARHGAP8 /// PRR5-ARHGAP8 (11727945_x_at) / Fold change /veh ARHGAP8 /// PRR5-ARHGAP8 (11727945_x_at) / RFU KRTAP5-7 /// NADSYN1 (11734609_at) / Fold change /veh KRTAP5-7 /// NADSYN1 (11734609_at) / RFU RASL12 (11751679_a_at) / Fold change /veh RASL12 (11751679_a_at) / RFU CDKN2B (11736163_a_at) / Fold change /veh CDKN2B (11736163_a_at) / RFU PRF1 (11729649_at) / Fold change /veh PRF1 (11729649_at) / RFU, ZNF638 /// ZNF638-IT1 / Fold change vs veh, ZNF638 /// ZNF638-IT1 / RFU, PANK3 / Fold change vs veh, PANK3 / RFU, SH3YL1 / Fold change vs veh, SH3YL1 / RFU, ZEB2 / Fold change vs veh, ZEB2 / RFU, NRIP1 / Fold change vs veh, NRIP1 / RFU, PTTG1IP / Fold change vs veh, PTTG1IP / RFU, CAPN2 / Fold change vs veh, CAPN2 / RFU, MED14 / Fold change vs veh, MED14 / RFU, SNORA58 / Fold change vs veh, SNORA58 / RFU, C1orf63 / Fold change vs veh, C1orf63 / RFU, LRRFIP1 / Fold change vs veh, LRRFIP1 / RFU, NDUFAF7 / Fold change vs veh, NDUFAF7 / RFU, SLC12A2 / Fold change vs veh, SLC12A2 / RFU, IBTK / Fold change vs veh, IBTK / RFU, ESF1 / Fold change vs veh, ESF1 / Fold change vs veh, TMEM50B / RFU, TAOK1 / Fold change vs veh, TAOK1 / RFU, ACBD3 / Fold change vs veh, ACBD3 / RFU, TMA16 / Fold change vs veh, TMA16 / RFU, RWDD3 / Fold change vs veh, RWDD3 / RFU, BCAT1 / Fold change vs veh, BCAT1 / RFU, EDEM3 / Fold change vs veh, EDEM3 / RFU, TMEM33 / Fold change vs veh, TMEM33 / RFU, WDR75 / Fold change vs veh, WDR75 / RFU, AHCTF1 / Fold change vs veh, AHCTF1 / RFU, TFRC / Fold change vs veh, TFRC / RFU, ZDHHC17 / Fold change vs veh, ZDHHC17 / RFU, NOM1 / Fold change vs veh, NOM1 / RFU, ARL8B / Fold change vs veh, ARL8B / RFU, ZBTB11 / Fold change vs veh, ZBTB11 / RFU, TAMM41 / Fold change vs veh, TAMM41 / RFU, KIAA1704 /// LOC100996395 / Fold change vs veh, KIAA1704 /// LOC100996395 / RFU, ING1 / Fold change vs veh, ING1 / RFU, TRMT61B / Fold change vs veh, TRMT61B / RFU, FUBP3 / Fold change vs veh, FUBP3 / RFU, TP53 / Fold change vs veh, TP53 / RFU, TNKS2 / Fold change vs veh, TNKS2 / RFU, ZFP14 / Fold change vs veh, ZFP14 / RFU, ACTR2 / Fold change vs veh, ACTR2 / RFU, PPP3R1 / Fold change vs veh, PPP3R1 / RFU, PIK3R1 / Fold change vs veh, PIK3R1 / RFU, HNRNPA1 / Fold change vs veh, HNRNPA1 / RFU, RNF170 / Fold change vs veh, RNF170 / RFU, ZNF28 / Fold change vs veh, ZNF28 / RFU, RNGTT / Fold change vs veh, RNGTT / RFU, OGT / Fold change vs veh, OGT / RFU, BRD1 / Fold change vs veh, BRD1 / RFU, MARS / Fold change vs veh, MARS / RFU, ZNF655 / Fold change vs veh, ZNF655 / RFU, FAHD1 / Fold change vs veh, FAHD1 / RFU, BDP1 / Fold change vs veh, BDP1 / RFU, LRRCC1 / Fold change vs veh, LRRCC1 / RFU, ARID1A / Fold change vs veh, ARID1A / RFU, ZNF146 / Fold change vs veh, ZNF146 / RFU, ZNF330 / Fold change vs veh, ZNF330 / RFU, GPN3 / Fold change vs veh, GPN3 / RFU, C9orf123 / Fold change vs veh, C9orf123 / RFU, N4BP2L2 / Fold change vs veh, N4BP2L2 / RFU, ARFIP1 / Fold change vs veh, ARFIP1 / RFU, FAM179B / Fold change vs veh, FAM179B / RFU, BCL10 / Fold change vs veh, BCL10 / RFU, UHRF1BP1L / Fold change vs veh, UHRF1BP1L / RFU, BET1 / Fold change vs veh, BET1 / RFU, CNOT2 / Fold change vs veh, CNOT2 / RFU, ZNF268 / Fold change vs veh, ZNF268 / Fold change vs veh, ZNF507 / RFU, DGCR2 / Fold change vs veh, DGCR2 / RFU, WDSUB1 / Fold change vs veh, WDSUB1 / Fold change vs veh, HSP90B1 /// MIR3652 / RFU, ADSS / Fold change vs veh, ADSS / RFU, GK / Fold change vs veh, GK / RFU, ZNF148 / Fold change vs veh, ZNF148 / RFU, TAF9 / Fold change vs veh, TAF9 / RFU, SLC1A5 / Fold change vs veh, SLC1A5 / RFU, SLMO2 / Fold change vs veh, SLMO2 / RFU, ABCC4 / Fold change vs veh, ABCC4 / RFU, LOC101060439 /// RAP1B / Fold change vs veh, LOC101060439 /// RAP1B / RFU, RFX7 / Fold change vs veh, RFX7 / RFU, GTPBP10 / Fold change vs veh, GTPBP10 / RFU, CNEP1R1 / Fold change vs veh, CNEP1R1 / RFU, BIVM-ERCC5 /// ERCC5 / Fold change vs veh, BIVM-ERCC5 /// ERCC5 / RFU, ILF3 / Fold change vs veh, ILF3 / RFU 11762660_at / Fold change /veh 11762660_at / RFU VCAN (11757783_s_at) / Fold change /veh VCAN (11757783_s_at) / RFU DDX43 (11728927_at) / Fold change /veh DDX43 (11728927_at) / RFU KRT8 (11758188_x_at) / Fold change /veh KRT8 (11758188_x_at) / RFU NKD1 (11759106_at) / Fold change /veh NKD1 (11759106_at) / RFU SRD5A1 (11742802_a_at) / Fold change /veh SRD5A1 (11742802_a_at) / RFU TPSAB1 /// TPSB2 (11721975_s_at) / Fold change /veh TPSAB1 /// TPSB2 (11721975_s_at) / RFU GSTM3 (11746129_a_at) / Fold change /veh GSTM3 (11746129_a_at) / RFU IL23R (11737362_x_at) / Fold change /veh IL23R (11737362_x_at) / RFU TMEM51 (11727254_a_at) / Fold change /veh TMEM51 (11727254_a_at) / RFU PIWIL2 (11732686_x_at) / Fold change /veh PIWIL2 (11732686_x_at) / RFU ORM1 (11744905_x_at) / Fold change /veh ORM1 (11744905_x_at) / RFU CCDC152 (11743942_at) / Fold change /veh CCDC152 (11743942_at) / RFU ECM1 (11717891_a_at) / Fold change /veh ECM1 (11717891_a_at) / RFU IL23R (11748794_a_at) / Fold change /veh IL23R (11748794_a_at) / RFU TNFAIP8L3 (11732012_x_at) / Fold change /veh TNFAIP8L3 (11732012_x_at) / RFU MBOAT4 (11741988_at) / Fold change /veh MBOAT4 (11741988_at) / RFU 11764193_at / Fold change /veh 11764193_at / RFU TMEM53 (11763286_at) / Fold change /veh TMEM53 (11763286_at) / RFU MAGEB2 (11727129_at) / Fold change /veh MAGEB2 (11727129_at) / RFU TMEM200A (11744735_a_at) / Fold change /veh TMEM200A (11744735_a_at) / RFU CCDC152 (11751479_a_at) / Fold change /veh CCDC152 (11751479_a_at) / RFU FAM211A (11726209_a_at) / Fold change /veh FAM211A (11726209_a_at) / RFU RGS16 (11746705_a_at) / Fold change /veh RGS16 (11746705_a_at) / RFU VCAN (11755009_s_at) / Fold change /veh VCAN (11755009_s_at) / RFU RHOB (11743442_s_at) / Fold change /veh RHOB (11743442_s_at) / RFU RGS16 (11720943_a_at) / Fold change /veh RGS16 (11720943_a_at) / RFU RGS16 (11720944_at) / Fold change /veh RGS16 (11720944_at) / RFU, VPS4B / Fold change vs veh, VPS4B / RFU, CREB1 / Fold change vs veh, CREB1 / RFU, DNAJC13 / Fold change vs veh, DNAJC13 / RFU, GNAQ / Fold change vs veh, GNAQ / RFU, CDK5R1 / Fold change vs veh, CDK5R1 / RFU, ZRANB3 / Fold change vs veh, ZRANB3 / RFU, CUL4A / Fold change vs veh, CUL4A / RFU, CCNY / Fold change vs veh, CCNY / RFU, UFL1 / Fold change vs veh, UFL1 / RFU, COG3 / Fold change vs veh, COG3 / RFU, DIAPH2 / Fold change vs veh, DIAPH2 / RFU, SKA2 / Fold change vs veh, SKA2 / RFU, AFF3 / Fold change vs veh, AFF3 / RFU, LMF1 / Fold change vs veh, LMF1 / RFU, IPO11 / Fold change vs veh, IPO11 / RFU, DFFB / Fold change vs veh, DFFB / RFU, FOXP1 / Fold change vs veh, FOXP1 / RFU, CARD8 / Fold change vs veh, CARD8 / RFU, STRN3 / Fold change vs veh, STRN3 / RFU, ADK / Fold change vs veh, ADK / RFU, RASSF2 / Fold change vs veh, RASSF2 / RFU, WIPF1 / Fold change vs veh, WIPF1 / RFU, LARP1B / Fold change vs veh, LARP1B / RFU, RASA1 / Fold change vs veh, RASA1 / RFU, RB1 / Fold change vs veh, RB1 / RFU, PPFIA1 / Fold change vs veh, PPFIA1 / RFU, MAT2A / Fold change vs veh, MAT2A / RFU, CCT5 / Fold change vs veh, CCT5 / RFU, WDR92 / Fold change vs veh, WDR92 / RFU, CUX1 / Fold change vs veh, CUX1 / RFU, TTC7A / Fold change vs veh, TTC7A / RFU, TMEM135 / Fold change vs veh, TMEM135 / RFU, DEPTOR / Fold change vs veh, DEPTOR / RFU, CPM / Fold change vs veh, CPM / RFU, DNAJB6 / Fold change vs veh, DNAJB6 / RFU, CACNA2D3 / Fold change vs veh, CACNA2D3 / RFU, DTX4 / Fold change vs veh, DTX4 / RFU, TFCP2 / Fold change vs veh, TFCP2 / RFU, GMCL1 /// GMCL1P1 / Fold change vs veh, GMCL1 /// GMCL1P1 / RFU, AEBP2 / Fold change vs veh, AEBP2 / RFU, SNHG1 /// SNORD22 /// SNORD25 /// SNORD26 /// SNORD27 /// SNORD28 /// SNORD29 /// SNORD31 / Fold change vs veh, SNHG1 /// SNORD22 /// SNORD25 /// SNORD26 /// SNORD27 /// SNORD28 /// SNORD29 /// SNORD31 / Fold change (Aza/veh), C12orf56 (ProbeSet 11735607_a_at) / Fold change (ACY-1035/veh), C12orf56 (ProbeSet 11735607_a_at) / Fold change (Aza/veh), FGFR1OP (ProbeSet 11751329_s_at) / Fold change (ACY-1035/veh), FGFR1OP (ProbeSet 11751329_s_at) / Fold change (Aza/veh), VPS36 (ProbeSet 11739960_a_at) / Fold change (ACY-1035/veh), VPS36 (ProbeSet 11739960_a_at) / RFU SYPL1 (11715823_x_at) / Fold change /veh SYPL1 (11715823_x_at) / RFU IGFBP7 (11715501_s_at) / Fold change /veh IGFBP7 (11715501_s_at) / RFU REEP3 (11722064_at) / Fold change /veh REEP3 (11722064_at) / RFU IGLL1 (11728026_x_at) / Fold change /veh IGLL1 (11728026_x_at): dose or concentration left out as unconfirmed
Conditions: MV-4-11 cells, 48 hours

With Nc1ncn([C@@H]2O[C@H](CO)[C@@H](O)[C@H]2O)c(=O)n1 [azacitidine] the “RFU GSTM3 (11746129_a_at)” value was 15.07 RFU.
